Reference: patent publication US20230405035A1, “MONTBRETIN A FUNCTIONAL FOOD” (THE UNIVERSITY OF BRITISH COLUMBIA, priority 2020, published 2023)

Experiments:
[1] = HPLC analysis of MbA bread extracts (integrity of MbA after baking); type: physicochemical; conditions: MbA baked in bread to an internal temperature of 100° C., methanol extract; control = MbA added after baking (MbA*)
Description: MbA was added as a primary ingredient to a standard bread recipe and to evaluate the integrity of the additive after baking. To this end MbA was added (45 mg) as part of the raw dough (225 g) and separated into 25 g half-servings after kneading. After baking to an internal temperature of 100° C., the samples were extracted with methanol and subject to HPLC and kinetic analysis. In parallel, control samples containing no MbA (MbA−) or MbA added after baking (MbA*) were assessed in an analogous manner.
Two approximately 225 g batches of bread were prepared, one containing MbA the other with no MbA. For each batch: • 1. 5 mL of yeast was activated by mixing with 62.5 mL 43.3° C. water and ¼ tsp sucrose then incubated on the bench top for 10 min. • 2. ½ cup of all-purpose flour was mixed with ½ cup whole-wheat flour and ⅛ tsp NaCl (and 45 mg* MbA for the MbA+ batch only). *The target MbA concentration was 10 mg per serving of bread:
[formula] • 3. The flour mixture was combined with the activated yeast mixture and 25 mL room temperature water then stirred until a dough formed. • 4. Dough kneaded for 10 min by hand. • 5. Dough was rested at room temperature for 30 min. • 6. […]
100 μL of each bread extract was injected on HPLC as described above. MbA was quantified by integrating the MbA on the HPLC trace to standard curve of known MbA amounts.

[2] = target: T1, human pancreatic α-amylase (HPA) (Homo sapiens, UniProt P04746); assay: HPA inhibition IC50 assay with colorimetric substrate CNPG3; type: biochemical; conditions: following standard bread production processes
T1 sequence (P04746 16-511): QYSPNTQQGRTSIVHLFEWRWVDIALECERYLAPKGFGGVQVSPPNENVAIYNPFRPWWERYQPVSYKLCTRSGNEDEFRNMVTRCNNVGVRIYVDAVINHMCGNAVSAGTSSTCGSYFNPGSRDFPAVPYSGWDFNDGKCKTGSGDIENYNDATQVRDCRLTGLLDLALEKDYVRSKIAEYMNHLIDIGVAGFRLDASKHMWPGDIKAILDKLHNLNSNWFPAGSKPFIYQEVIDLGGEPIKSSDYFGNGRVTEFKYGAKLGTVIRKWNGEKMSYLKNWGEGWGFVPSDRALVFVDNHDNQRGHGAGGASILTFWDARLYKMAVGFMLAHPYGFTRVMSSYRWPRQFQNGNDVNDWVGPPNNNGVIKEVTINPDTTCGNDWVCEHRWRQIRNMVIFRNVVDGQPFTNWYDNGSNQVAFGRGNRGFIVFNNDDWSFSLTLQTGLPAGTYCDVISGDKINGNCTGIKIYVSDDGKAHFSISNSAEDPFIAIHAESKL
Description: MbA inhibits the activity of human pancreatic α-amylase (HPA). To determine whether and to what extent the prepared bread extract inhibits HPA, enzymatic assays were performed with the colorimetric substrate 2-chloro-4-nitrophenyl-[…] (CNPG3).
HPA inhibition activity of the bread prepared as described above was determined by monitoring CNPG3 concentration. 20 μL of 200, 100, 40, 20 or 8 mM CNPG3 were combined with 170 μL buffer (50 mM phosphate pH 7.0, 100 mM NaCl) in quartz cuvettes and placed in a CARYXXX UV/Vis spectrophotometer. • 2. To each of the five cuvettes, 10 μL of HPA solution was rapidly added to the 190 μL buffered substrate solution. • 3. Spectrophotometer was set to continuously measure absorbance at 400 nm over 5 min. • 4. […] Rates were calculated from t=1 to t=3 (Δ400 nm/min), plotted against CNPG3 concentration and fit with the Michaelis-Menten equation.
20 μL of 40 mM CNPG was combined with 150 μL buffer and 20 μL MbA− or MbA+ bread extract (either ×100 or ×1000 diluted with water). […] Spectrophotometer was set to continuously measure absorbance at 400 nm over 5 min. • 4. Rates were calculated from t=1 to t=3 (Δ400 nm/min), plotted on a bar graph.
Three sets of bread extractions were done to measure IC50: • A. Bread baked with MbA (MbA+) • B. Bread baked without MbA (MbA−) • C. […] IC50s were measured using the HPA/CNPG3 assay described above: • 1. […]

- MbA intact relative to control (HPLC traces) [1]: 84%
- activity retained relative to the unbaked controls (MbA*) [2]: greater than 80%
Compound: CC1O[C@@H](O[C@@H]2CO[C@@H](Oc3c(O)cc(-c4oc5cc(O)cc(O)c5c(=O)c4O[C@@H]4OC(C)[C@H](O)[C@H](O)C4O[C@@H]4OC(COC(=O)/C=C/c5ccc(O)c(O)c5)[C@@H](O)[C@@H](O)C4O[C@@H]4OC(CO)[C@@H](O)[C@@H](O)C4O)cc3O)C(O)[C@@H]2O)C(O)[C@@H](O)[C@H]1O (some centres unmarked) [MbA, Montbretin A]
